According to patent US20070043111A1, “Use of ifenprodril in the treatment of pain” (priority 2003, published 2007):

Key:
[1] = system: alpha-1 adrenergic receptor; details: Chenard et al., 1991; cited from earlier work
[2] = system: intraplantar carrageenan-induced paw withdrawal latency; assay: intraplantar carrageenan-induced paw withdrawal latency in the rat; type: in vivo
Method: More particularly, FIG. 1 is a graph showing the effect of (−) threo-ifenprodil when given intranasally or intraperitoneally at 10 and 30 mg/kg on the % change of pressure-induced paw withdrawal latency on the intraplantar carrageenan administered paw in the rat (250 g).
FIG. 2 is a graph showing the effect of (−) threo-ifenprodil when given intravenously at 0.1 to 3 mg/kg on the % change of pressure-induced paw withdrawal latency on the intraplantar carrageenan administered paw in the rat.

## CC(C(O)c1ccc(O)cc1)N1CCC(Cc2ccccc2)CC1 (centres unmarked) [Ifenprodil, 2-(4-benzylpiperidino)-1-(4-hydroxyphenyl)-1-propanol]
[1]
  alpha-1 adrenergic receptor binding properties: potent

## CC(C(O)c1ccc(O)cc1)N1CCC(Cc2ccccc2)CC1 (single isomer, unassigned; (-)) [(−) Threo-ifenprodil]
[2]; intravenous, 0.1, 0.3, 1 and 3 mg/kg, FIG. 2
  efficacy on pressure-induced paw withdrawal latency: excellent efficacy

## CC(C(O)c1ccc(O)cc1)N1CCC(Cc2ccccc2)CC1 (racemic) [erythro racemate of ifenprodil]
[2]; FIG. 1
  intranasal route compared with intraperitoneal route: at least equivalent if not superior to the intraperitoneal route
[2]; intranasal, 2.5 mg/rat and 7.5 mg/rat, FIG. 1
  analgesic effect on pressure-induced paw withdrawal latency: markedly analgesic
[2]; intraperitoneal, 10 mg/kg and 30 mg/kg, FIG. 1
  analgesic effect on pressure-induced paw withdrawal latency: markedly analgesic
